Active and inactive are the calls of the source. The calls are words filed in the database; no cut-off is given here.
Experiments:
Trypanosoma cruzi [1] = test: Antitrypanosomal activity against Trypanosoma cruzi Dm28c epimastigotes assessed as non-viable epimastigotes at 10 umol/L after 4 hrs by MTT assay relative to untreated control; assay type: functional
Trypanosoma cruzi [2] = test: Antitrypanosomal activity against Trypanosoma cruzi Dm28c epimastigotes assessed as non-viable epimastigotes at 100 umol/L after 4 hrs by MTT assay relative to untreated control; assay type: functional
[3] = Antioxidant activity assessed as hydroxyl radical scavenging activity after 5 mins by ESR spectroscopy; design: concentration or dose not given beside the values
[4] = Antioxidant activity assessed as compound compete with DMPO for hydroxyl radicals by ESR assay; assay type: functional

Which results are given for `O=C(c1ccc(O)c(O)c1)c1cc2c(O)cc(O)cc2oc1=O`?
Activity (Trypanosoma cruzi [1]): inactive; Activity (Trypanosoma cruzi [2]): inactive; Activity [3]: 84.2%

For `O=C(c1ccc(O)c(O)c1)c1cc2cc(Br)cc(O)c2oc1=O`, which Activity (Trypanosoma cruzi [1]) is on record?
Its Activity is 9.5%.

And the Activity (Trypanosoma cruzi [2])?
Its Activity is 24.1%.

What about the Activity [4] of the same molecule?
Its Activity is “Active”.

What about the Activity [3] of the same molecule?
Its Activity is 90.9%.

Which Activity (Trypanosoma cruzi [1]) does the source give for `CC1CS(=O)(=O)CCN1/N=C/c1ccc([N+](=O)[O-])o1` (stereo not drawn) [NIFURTIMOX] here?
The Activity was 52.5%.

What about the Activity (Trypanosoma cruzi [2]) of the same molecule?
Its Activity is 100%.

For `O=C(c1ccc(O)c(O)c1)c1cc2ccccc2oc1=O`, which Activity (Trypanosoma cruzi [1]) is on record?
Its Activity is 23.8%.

What about the Activity (Trypanosoma cruzi [2]) of the same molecule?
Its Activity is 38.7%.

And the Activity [3]?
The Activity was 84.6%.

With `O=C(c1ccc(O)c(O)c1)c1cc2cc(O)ccc2oc1=O` as the molecule, how does the Activity (Trypanosoma cruzi [1]) read?
Its Activity is 18.9%.

And the Activity (Trypanosoma cruzi [2])?
Its Activity is 46.4%.

What about the Activity [3] of the same molecule?
The Activity was 84.8%.

What does the source list for `Cc1ccc2oc(=O)c(C(=O)c3ccc(O)c(O)c3)cc2c1`?
Activity (Trypanosoma cruzi [1]): 27.9%; Activity (Trypanosoma cruzi [2]): 47.9%; Activity [3]: 82.1%

From ChEMBL document CHEMBL3217530, “Synthesis of coumarinchalcone hybrids and evaluation of their antioxidant and trypanocidal properties” (2013)
